Laboratory results taken from ChEMBL document CHEMBL1201862, “PubChem BioAssay data set” (2004).
Values joined by “and” are separate entries in the source; they are usually repeats but may differ in a detail not shown here. Identical values can stand only once. Active and inactive are the calls of the source.

Tests used:
Bcl-2-related protein A1 [1] = target: T1, Bcl-2-related protein A1 (Mus musculus, UniProt Q07440); test: Bfl-1 inhibitors, primary screen, biochemical, fluorescence polarization, FITC-Bid, mouse (AID 432)
T1 sequence (Q07440 whole entry): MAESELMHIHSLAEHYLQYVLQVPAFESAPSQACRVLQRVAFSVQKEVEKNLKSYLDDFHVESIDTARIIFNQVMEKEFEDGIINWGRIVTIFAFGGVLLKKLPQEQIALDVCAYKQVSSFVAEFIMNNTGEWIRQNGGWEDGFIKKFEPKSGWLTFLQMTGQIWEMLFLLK

CHO = test: cytotoxicity in TLR9-MyD88 CHO cells, dose response, cytotoxicity control for TLR9-MyD88 binding inhibitor project, cell-based, luminescence (AID 588339); format: functional, hamster; settings: Cricetulus griseus;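 also: CHO cells stably coexpressing TLR9 and MyD88 fusions from primary screen; compound exposure lasted 48 hours before viability readout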
Beta Lactamase = Beta Lactamase (Pseudomonas aeruginosa, UniProt Q932Y6); test: beta-lactamase reporter inhibitor potency, dose response, artefact control for TLR9-MyD88 binding inhibitor project, BLA reporter cells, FRET fluorescence (AID 588341); format: cell-based;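 also: cell based assay in CHO-K1 cells stably expressing beta-lactamase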
Beta Lactamase, sequence (Q932Y6 whole entry): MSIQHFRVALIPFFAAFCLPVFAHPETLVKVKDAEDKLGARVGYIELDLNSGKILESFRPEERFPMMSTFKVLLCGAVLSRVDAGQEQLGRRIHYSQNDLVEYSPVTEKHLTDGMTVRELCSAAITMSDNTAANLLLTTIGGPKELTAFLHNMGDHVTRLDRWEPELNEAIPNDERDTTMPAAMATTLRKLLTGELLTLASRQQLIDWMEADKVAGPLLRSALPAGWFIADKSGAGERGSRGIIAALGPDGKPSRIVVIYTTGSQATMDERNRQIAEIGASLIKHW

Bcl-2-related protein A1 [2] = target: T1, Bcl-2-related protein A1; test: Bfl-1 inhibitors blocking BH3 peptide binding, confirmation, biochemical, TR-FRET, mouse Bfl-1 (AID 621);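 also: TR-FRET binding of GST-Bfl-1 to FITC-labelled Bid peptide via terbium antibody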
[3] = cytotoxicity in KRAS-transformed pancreatic duct cells, primary screen, cell-based, fluorescence, HTS (AID 431); format: functional; settings: Homo sapiens;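 also: cell line used: HPDE-C7K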
[4] = target: Glyceraldehyde-3-phosphate dehydrogenase (Homo sapiens, UniProt P04406)
Glyceraldehyde-3-phosphate dehydrogenase, sequence (P04406 whole entry): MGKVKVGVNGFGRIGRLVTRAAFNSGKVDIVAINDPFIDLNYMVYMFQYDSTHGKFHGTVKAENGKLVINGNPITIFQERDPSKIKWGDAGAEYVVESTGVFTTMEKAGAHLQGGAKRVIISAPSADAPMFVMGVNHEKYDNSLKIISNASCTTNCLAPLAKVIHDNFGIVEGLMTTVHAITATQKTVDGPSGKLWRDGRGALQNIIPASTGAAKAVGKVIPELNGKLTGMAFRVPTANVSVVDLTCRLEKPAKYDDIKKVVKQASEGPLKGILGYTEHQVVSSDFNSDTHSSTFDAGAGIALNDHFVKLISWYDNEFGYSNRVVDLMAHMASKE

Protein RecA = target: T2, Protein RecA (Mycobacterium tuberculosis, UniProt P9WHJ3); test: Fluorescence Cell-Free Homogeneous Dose Retest to Identify Inhibitors of RecA-Intein Splicing Activity. [Related pubchem assays (depositor defined):AID2097, AID2223, AID489010, AID492950]; format: functional
T2 sequence (P9WHJ3 whole entry): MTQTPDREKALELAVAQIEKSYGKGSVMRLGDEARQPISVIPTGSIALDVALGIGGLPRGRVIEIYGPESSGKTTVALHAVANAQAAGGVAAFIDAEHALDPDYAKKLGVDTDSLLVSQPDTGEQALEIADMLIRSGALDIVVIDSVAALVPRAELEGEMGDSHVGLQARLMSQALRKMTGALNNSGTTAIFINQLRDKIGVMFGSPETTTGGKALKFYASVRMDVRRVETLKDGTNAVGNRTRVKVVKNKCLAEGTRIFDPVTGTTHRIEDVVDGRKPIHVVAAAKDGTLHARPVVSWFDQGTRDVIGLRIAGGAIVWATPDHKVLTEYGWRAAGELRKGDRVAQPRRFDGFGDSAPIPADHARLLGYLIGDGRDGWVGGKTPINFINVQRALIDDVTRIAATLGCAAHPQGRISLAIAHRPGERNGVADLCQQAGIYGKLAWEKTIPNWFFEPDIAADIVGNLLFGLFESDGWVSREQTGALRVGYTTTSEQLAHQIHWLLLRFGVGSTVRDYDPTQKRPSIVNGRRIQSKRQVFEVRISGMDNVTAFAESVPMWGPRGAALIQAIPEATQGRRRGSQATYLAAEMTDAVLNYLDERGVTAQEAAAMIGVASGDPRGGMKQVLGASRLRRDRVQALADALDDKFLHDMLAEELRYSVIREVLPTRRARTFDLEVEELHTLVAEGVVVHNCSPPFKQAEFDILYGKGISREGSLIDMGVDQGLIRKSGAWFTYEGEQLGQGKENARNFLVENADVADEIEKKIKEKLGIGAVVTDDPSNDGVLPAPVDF

Bcl-2-related protein A1 [5] = target: T1, Bcl-2-related protein A1; test: Bfl-1 binding inhibitors, SAR follow-up, biochemical, fluorescence polarization (AID 1070)
[6] = Shn3 3'UTR reporter inhibitors, dose response, cell-based, Clone20 osteoblasts, firefly luciferase, cherry-picked (AID 624132); format: functional;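 also: firefly luciferase luminescence from reporter carrying the Shn3 3'UTR in osteoblasts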
[7] = control 3'UTR Renilla luciferase suppression, dose response, counter-screen for Shn3 inhibitor project, cell-based, Clone20-Shn3RL, cherry-picked (AID 624133); format: functional
[8] = cytotoxicity in HPDE-C7 cells, cell-based, fluorescence, HTS (AID 430); format: functional; settings: Homo sapiens
[9] = HepG2 cell cytotoxicity, dose response, cytotoxicity control for Shn3 inhibitor project, CellTiter-Glo, cherry-picked (AID 624134); format: functional, cell-based
[10] = target: T3, Replicative DNA helicase DnaB (Mycobacterium tuberculosis, UniProt P9WMR3); test: DnaB intein splicing inhibitors, dose response, biochemical, cell-free fluorescence (AID 449749); format: functional
T3 sequence (P9WMR3 whole entry): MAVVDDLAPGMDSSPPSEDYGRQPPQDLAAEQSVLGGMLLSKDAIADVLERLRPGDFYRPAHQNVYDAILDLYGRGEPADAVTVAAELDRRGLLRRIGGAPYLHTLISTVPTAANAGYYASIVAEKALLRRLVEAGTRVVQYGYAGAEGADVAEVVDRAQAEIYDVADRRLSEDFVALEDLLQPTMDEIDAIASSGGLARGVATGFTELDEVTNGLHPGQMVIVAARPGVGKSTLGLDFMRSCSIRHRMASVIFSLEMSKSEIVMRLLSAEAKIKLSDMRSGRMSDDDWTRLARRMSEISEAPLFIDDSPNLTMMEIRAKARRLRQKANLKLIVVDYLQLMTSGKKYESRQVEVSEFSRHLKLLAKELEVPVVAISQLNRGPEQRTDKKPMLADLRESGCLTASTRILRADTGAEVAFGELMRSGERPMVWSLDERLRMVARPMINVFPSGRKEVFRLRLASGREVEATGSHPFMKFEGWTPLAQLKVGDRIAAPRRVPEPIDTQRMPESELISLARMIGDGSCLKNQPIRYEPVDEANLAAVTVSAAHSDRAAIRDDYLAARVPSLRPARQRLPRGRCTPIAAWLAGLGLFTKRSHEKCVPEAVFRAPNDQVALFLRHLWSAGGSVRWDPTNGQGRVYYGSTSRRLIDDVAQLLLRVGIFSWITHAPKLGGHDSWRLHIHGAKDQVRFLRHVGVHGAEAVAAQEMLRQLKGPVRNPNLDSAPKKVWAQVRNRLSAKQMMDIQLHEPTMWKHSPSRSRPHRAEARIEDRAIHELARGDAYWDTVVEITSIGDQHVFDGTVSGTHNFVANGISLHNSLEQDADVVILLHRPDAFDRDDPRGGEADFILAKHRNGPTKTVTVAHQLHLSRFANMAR

Estrogen receptor = Estrogen receptor (Homo sapiens, UniProt P03372);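 also: potency for inhibiting coactivator peptide recruitment to the receptor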
Estrogen receptor, sequence (P03372 whole entry): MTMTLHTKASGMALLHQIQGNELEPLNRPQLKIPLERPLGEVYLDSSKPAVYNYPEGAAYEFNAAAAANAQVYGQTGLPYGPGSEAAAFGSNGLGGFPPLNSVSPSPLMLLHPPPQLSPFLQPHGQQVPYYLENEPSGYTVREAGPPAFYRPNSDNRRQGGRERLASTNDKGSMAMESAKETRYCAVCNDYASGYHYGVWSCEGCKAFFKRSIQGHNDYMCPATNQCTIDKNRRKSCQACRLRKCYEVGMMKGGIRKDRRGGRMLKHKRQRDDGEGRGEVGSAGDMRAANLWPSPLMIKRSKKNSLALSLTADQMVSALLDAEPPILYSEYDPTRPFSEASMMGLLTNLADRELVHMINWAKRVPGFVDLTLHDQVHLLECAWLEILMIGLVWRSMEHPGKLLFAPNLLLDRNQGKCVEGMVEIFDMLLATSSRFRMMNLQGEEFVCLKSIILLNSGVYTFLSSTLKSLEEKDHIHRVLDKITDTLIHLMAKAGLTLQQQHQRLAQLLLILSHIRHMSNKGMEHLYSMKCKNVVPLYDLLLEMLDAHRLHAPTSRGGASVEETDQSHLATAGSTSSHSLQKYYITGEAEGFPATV

[11] = target: T4, Calpain-2 catalytic subunit (Sus scrofa, UniProt P43367); test: pig calpain II inhibitor potency, dose response, biochemical, fluorogenic peptide substrate (AID 1420); format: functional
T4 sequence (P43367 whole entry): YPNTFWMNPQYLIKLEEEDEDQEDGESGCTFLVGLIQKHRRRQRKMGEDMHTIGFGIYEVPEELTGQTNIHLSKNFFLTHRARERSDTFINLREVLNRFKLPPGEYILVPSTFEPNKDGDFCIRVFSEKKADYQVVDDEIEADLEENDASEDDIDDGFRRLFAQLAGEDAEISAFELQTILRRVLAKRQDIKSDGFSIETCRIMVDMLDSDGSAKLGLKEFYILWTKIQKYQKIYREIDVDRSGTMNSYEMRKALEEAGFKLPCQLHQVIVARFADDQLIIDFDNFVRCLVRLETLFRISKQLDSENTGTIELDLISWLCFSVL

NADPH oxidase 1 = NADPH oxidase 1 (Homo sapiens, UniProt Q9Y5S8); format: functional, cell-based;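 also: Cell-based assay with luminescence read-out, IC50 derived from inhibitor dose-response curves; intracellular ROS from endogenous NOX1 in intact HT29 colon cancer cells; potency of inhibitors that lower the ROS luminescence signal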
NADPH oxidase 1, sequence (Q9Y5S8 whole entry): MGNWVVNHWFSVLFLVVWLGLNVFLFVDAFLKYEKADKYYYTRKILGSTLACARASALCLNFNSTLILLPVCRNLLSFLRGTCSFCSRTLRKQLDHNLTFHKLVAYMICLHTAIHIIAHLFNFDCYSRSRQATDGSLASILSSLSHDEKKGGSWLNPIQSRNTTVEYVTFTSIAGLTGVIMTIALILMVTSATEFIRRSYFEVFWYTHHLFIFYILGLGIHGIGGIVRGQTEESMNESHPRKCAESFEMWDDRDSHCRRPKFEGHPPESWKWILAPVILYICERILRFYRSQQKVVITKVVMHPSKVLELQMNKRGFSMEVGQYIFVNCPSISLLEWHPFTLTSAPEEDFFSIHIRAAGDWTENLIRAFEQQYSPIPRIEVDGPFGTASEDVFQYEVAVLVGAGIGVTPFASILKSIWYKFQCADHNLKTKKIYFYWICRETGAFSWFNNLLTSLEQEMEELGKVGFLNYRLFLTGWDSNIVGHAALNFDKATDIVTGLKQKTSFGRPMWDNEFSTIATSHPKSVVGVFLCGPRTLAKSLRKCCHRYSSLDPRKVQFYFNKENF

[12] = target: Epstein-Barr nuclear antigen 1 (Epstein-Barr virus (strain B95-8) (HHV-4) (Human herpesvirus 4), UniProt P03211); test: EBNA-1 inhibitors, dose response, biochemical, fluorescence polarization, 1536-well (AID 2381); parameters: species or system human gammaherpesvirus 4;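 also: fluorescence polarization of a Cy5 DNA probe bound by EBNA-1 protein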
Epstein-Barr nuclear antigen 1, sequence (P03211 whole entry): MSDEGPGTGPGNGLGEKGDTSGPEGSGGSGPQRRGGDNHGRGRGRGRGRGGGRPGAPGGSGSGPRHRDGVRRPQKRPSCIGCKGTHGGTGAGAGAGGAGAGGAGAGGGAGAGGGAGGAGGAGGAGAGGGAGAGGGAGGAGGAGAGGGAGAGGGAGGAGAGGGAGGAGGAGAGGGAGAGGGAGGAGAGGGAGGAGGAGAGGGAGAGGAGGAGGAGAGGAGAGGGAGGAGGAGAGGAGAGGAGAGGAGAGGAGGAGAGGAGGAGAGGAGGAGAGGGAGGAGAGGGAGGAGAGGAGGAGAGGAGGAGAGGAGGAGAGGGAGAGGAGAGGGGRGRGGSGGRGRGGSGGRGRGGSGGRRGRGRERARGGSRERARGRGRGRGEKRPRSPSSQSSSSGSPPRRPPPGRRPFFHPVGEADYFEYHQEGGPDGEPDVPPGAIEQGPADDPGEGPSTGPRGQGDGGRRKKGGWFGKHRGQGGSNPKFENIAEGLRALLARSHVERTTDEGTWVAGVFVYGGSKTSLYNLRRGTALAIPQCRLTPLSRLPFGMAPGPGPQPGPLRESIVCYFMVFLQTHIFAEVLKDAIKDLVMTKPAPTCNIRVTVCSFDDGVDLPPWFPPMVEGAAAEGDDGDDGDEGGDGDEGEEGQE

[13] = target: Lytic switch protein BZLF1 (Epstein-Barr virus (strain B95-8) (HHV-4) (Human herpesvirus 4), UniProt P03206); test: EBV ZTA inhibitors, dose response, counter-screen for EBNA-1 inhibitor project, biochemical, fluorescence polarization, Epstein-Barr virus, 1536-well (AID 2377); parameters: species or system human gammaherpesvirus 4;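 also: fluorescence polarization of Cy5-labelled ZRE DNA probe bound by purified Zta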
Lytic switch protein BZLF1, sequence (P03206 whole entry): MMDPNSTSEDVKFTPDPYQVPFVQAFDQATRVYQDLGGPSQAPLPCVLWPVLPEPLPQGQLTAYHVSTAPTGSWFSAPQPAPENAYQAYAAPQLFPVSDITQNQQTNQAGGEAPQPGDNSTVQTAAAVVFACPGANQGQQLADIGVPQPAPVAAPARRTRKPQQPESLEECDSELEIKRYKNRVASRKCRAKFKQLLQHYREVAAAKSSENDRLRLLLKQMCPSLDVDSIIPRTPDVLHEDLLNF

CCOC(=O)CS(=O)(=O)c1nc(-c2ccc(F)cc2)cc(C(F)(F)F)n1
IC50 (Bcl-2-related protein A1 [1]): 3.78 µM (active) | IC50 (CHO): 2.88 µM (active) | IC50 (Beta Lactamase): 14.4 µM (inactive) | IC50 (Bcl-2-related protein A1 [2]): 3.41 µM (active) and 1.46 µM (active) | EC50 [3]: 6.05 µM (active) | IC50 [4]: > 100 µM (not active) | EC50 (Protein RecA): 3.3 µM (active) | IC50 (Bcl-2-related protein A1 [5]): 2.16 µM (active) | AC50 [6]: 1.78 µM (active) | AC50 [7]: 6.97 µM (active) | EC50 [8]: 9.29 µM (active) | AC50 [9]: 20.9 µM (active) | AC50 [10]: 3.35 µM (active)

Cc1nnc(Oc2ccccc2F)c2ccccc12
IC50 (Estrogen receptor): 30 µM (active) | IC50 [11]: > 50 µM (not active)

COc1ccc2c(Cl)c(C(=O)Oc3ccccc3[N+](=O)[O-])sc2c1
IC50 (NADPH oxidase 1): > 17 µM (not active)

CCOc1ccc(C(=O)NC(=S)Nc2ccc(NC(=O)C(C)C)cc2)cc1[N+](=O)[O-]
IC50 [12]: 1.89 µM (active) | IC50 [13]: > 111 µM (not active)
